The values below come from patent publication US20210115087A1, “CYCLIC PEPTIDE INHIBITORS OF HEDGEHOG PROTEINS” (University of Rochester, priority 2016, published 2021).

A word on the Kd: it is the concentration at which binding is half-saturated. The low end stands for tighter binding, the high end for weaker binding.

“Also recorded” adds a separate entry of the source. *1 amine or outer side, *2 acyl side, *3 side chain or, on linkers, in order; H or OH if unused. Where a SMILES comes first, the peptide text is derived from it. Bridges are numbered along the chain shown (N, C = ends). CH2CH2 = C(C[*:2])[*:1]

Assay [1] addresses T1, GST-Shh (Homo sapiens, UniProt Q15465).
T1 construct: poly-histidine (N); made in house; host or cells: E. coli BL21(DE3), vector pET42b
Nature of the assay: KD (nM). From the text: Table printed on a drawing sheet, FIG. 9
Head of the field: KD (nM)
The patent's description of the figure: FIG. 9. Shh binding affinity of X5-X8-linked cyclic peptides.
First copying reader's note: The error (±) is printed in the same cell as the KD value.
Where the first naming reader finds the target: description_of_the_figure: direct binding of the selected FLAG tag-fused peptides to plate-immobilized GST-Shh
Target sequence in this assay (Q15465 24-197 limits assumed): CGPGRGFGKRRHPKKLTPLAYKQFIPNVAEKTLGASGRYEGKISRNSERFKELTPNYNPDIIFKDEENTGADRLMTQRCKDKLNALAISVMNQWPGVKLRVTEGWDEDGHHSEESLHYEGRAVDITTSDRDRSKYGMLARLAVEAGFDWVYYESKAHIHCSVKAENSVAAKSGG

Assay [2] addresses T1, GST-Shh. Nature of the assay: Hh protein binding immunoassay: FLAG-tagged peptide on plate-immobilized GST-Shh, HRP-conjugated anti-FLAG antibody. The source says: As for any peptide/protein interaction, various analytical and biophysical methods can be applied to test and assess the ability of the compounds provided herein to bind to Hedgehog proteins. These methods include, but are not limited to immunoassays (e.g., ELISA), radio(immune)assays, fluorescence-based assays, colorimetric assays, and/or techniques such as surface plasmon resonance (SPR), FRET, fluorescence polarization, isothermal calorimetry, NMR, and the like. A method that can be used is a solid phase immunoassay, in which the Hedgehog protein is immobilized on a plate or test tube and then incubated with the peptide at a fixed or variable concentration. In this assay, the peptide is functionalized with a label in the form of an antibody epitope (e.g., ‘FLAG tag’ peptide sequence) or an affinity tag molecule (e.g., biotin). After washing the unbound peptide, the Hedgehog-bound peptide is detected and quantified by means of a colorimetric assay using an enzyme-conjugated antibody (e.g., horseradish peroxidase-conjugated anti-FLAG antibody) or enzyme-conjugated capture protein (e.g., horseradish peroxidase-conjugated streptavidin). […]
To measure the binding affinity of the peptides for Shh, an in vitro assay was established in which recombinant GST-fused Shh is immobilized on microtiter plates and then exposed to the FLAG-tagged peptide at varying concentrations. The Shh-bound peptide is then quantified colorimetrically (λ450) using a horseradish peroxidase (HRP)-conjugated anti-FLAG antibody. […]
Hh protein binding assay. Shh binding activity/affinity of the linear and cyclic peptides was measured using the immunoassay outlined in FIG. 4. […] After washing, 100 μL of 2.2 mM o-phenylenediamine dihydrochloride, 4.2 mM urea hydrogen peroxide, 100 mM dibasic sodium phosphate and 50 mM sodium citrate, pH 5.0 was added to each well, followed by measurement of the absorbance at 450 nm using a Tecan Infinite 1000 plate reader. […]
Target sequence in this assay (Q15465 24-462): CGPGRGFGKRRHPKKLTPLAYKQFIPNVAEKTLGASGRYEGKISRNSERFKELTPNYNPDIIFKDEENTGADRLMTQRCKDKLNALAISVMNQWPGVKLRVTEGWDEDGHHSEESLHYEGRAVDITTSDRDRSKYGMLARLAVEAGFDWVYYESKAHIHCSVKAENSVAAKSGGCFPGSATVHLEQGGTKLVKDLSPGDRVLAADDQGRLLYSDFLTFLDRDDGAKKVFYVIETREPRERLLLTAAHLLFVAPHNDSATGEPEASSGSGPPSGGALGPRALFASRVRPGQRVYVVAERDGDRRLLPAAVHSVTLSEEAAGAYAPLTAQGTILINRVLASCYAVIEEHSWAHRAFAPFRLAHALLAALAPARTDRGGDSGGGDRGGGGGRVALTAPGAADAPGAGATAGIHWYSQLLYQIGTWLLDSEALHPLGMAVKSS

The test system of assay [3] is Shh-mediated Hedgehog pathway signaling in NIH3T3 cells. The experiment in a line: Gli-reporter dual luciferase assay in Shh-N-stimulated NIH-3T3 cells. It counts as cell-based, mouse. The source says:
The ability of the compounds provided herein to inhibit ligand-induced activation of the Hedgehog pathway in a cell can be assessed by means of a cell based assay. In an exemplary procedure, a suitable reporter plasmid is introduced in a Hedgehog responsive mammalian cell. Typically, the reporter plasmid contains a reporter gene encoding (e.g., a gene encoding for firefly luciferase) under a Gli-controlled promoter, thereby providing a reporter gene that is responsive to the activity of the Gli transcription factors. […] The reporter cells are incubated with the Hedgehog protein in the presence and in the absence of the cyclic peptide. The extent of Hedgehog pathway suppression can be determined based on relative activity of the luciferase reporter enzyme, which in turn can be determined by measuring the luminescence signal after addition of a luminogenic substrate of the luciferase enzyme.
To this end, we utilized a cell-based luciferase reporter assay, (Chen, Taipale et al. 2002) in which mouse embryo fibroblasts (NIH3T3) are transfected with vectors encoding for a Firefly luciferase (FF) gene under a Gli-controlled promoter and a Renilla luciferase (Ren) gene under a constitutive promoter. Hedgehog pathway suppression is measured based on the decrease in Firefly/Renilla luminescence ratio in the presence of the inhibitor. […] (Chen, Taipale et al. 2002)
Gli-reporter Assay. NIH-3T3 cells were passaged twice and then plated in 24-well culture dishes at 5×10^5 cells/well in DMEM containing 10% FBS and 1% penicillin/streptomycin. After 24 hours, the cells were transfected (TransIT-2020) with a mixture of a firefly luciferase reporter construct under the control of a Gli1 inducible promoter and a Renilla luciferase reporter construct under a constitutive promoter (40:1) (Cignal GLI Reporter Luciferase Kit, Qiagen). Cells were allowed to reach confluency, at which point the media was changed to Opti-MEM containing 1% FBS and added with 4 nM Shh-N(R&D Systems, Minneapolis, Minn.) in sterile PBS buffer. Synthetic HL2-lin and HL2-m5 were added at the same time at varying concentration (0.01-30 uM), and control cells were prepared by adding vehicle only (1% DMSO). Purmorphamine-treated cells were prepared by adding 5 μM purmorphamine to wells containing 10 μM HL2-m5. After growth for 24 hours at 37° C. in a humidified chamber, the cells were harvested and analyzed for Firefly and Renilla luciferase activity using a Tecan Spark-20 plate reader and a DLR kit (Promega) according to the manufacturer's instructions. Luminescence values were normalized to those of the Shh pathway activated control cells. Mean values and standard deviations were calculated from experiments performed at least in duplicate.

For assay [4], the system named is GST-Shh, GST-Ihh, and GST-Dhh. Nature of the assay: Hedgehog analog selectivity: relative binding at fixed peptide concentration. Also on record: species or system human. As to conditions: peptide at fixed concentration of 0.5-1 μM, normalized to highest response. The protocol: FIG. 14. Hh analog selectivity for linear HHIP L2-derived peptide (HL2-pep) and representative cyclic peptide inhibitors. The data relative to the peptides were derived from direct binding experiments with immobilized Hedgehog proteins (i.e., GST-Shh, GST-Ihh, and GST-Dhh), biotinylated peptides (i.e., Biot-HL2-pep, Biot-HL2-m1, Biot-HL2-m2, Biot-HL2-m3, Biot-HL2-m4, Biot-HL2-m4), and HRP-conjugated streptavidin. The data relative to robotnikinin were derived from competition experiments ([…]+400 nM HL2-m5). For each compound, the response values were normalized to the highest binding response measured across the three Hedgehog analogs.
Hedgehog analog selectivity. KD values for FLAG-HL2-m5 binding to Ihh and Dhh were determined using the colorimetric immunoassay described earlier but using GST-Ihh and GST-Dhh-coated plates, respectively. The peptide relative binding affinity for the three isoforms of Hedgehog was determined using the same assay and peptide solutions at a fixed concentration of 0.5-1 μM. In this case, binding responses were subtracted against the blank (no peptide sample) and normalized to the highest value measured across the three Hh isoforms. Mean values and standard deviations were calculated from experiments performed at least in triplicate.

Turning to `CSCC[C@H](N)C(=O)N[C@@H](CC(=O)O)C(=O)N[C@@H](Cc1ccc(O)cc1)C(=O)N[C@@H](CCCCN)C(=O)N[C@@H](CC(=O)O)C(=O)N[C@@H](CC(=O)O)C(=O)N[C@@H](CC(=O)O)C(=O)N[C@@H](CC(=O)O)C(=O)N[C@@H](CCCCN)C(=O)NCC(=O)N[C@@H](CO)C(=O)NCC(=O)N[C@@H](CO)C(=O)N[C@H](C(=O)N[C@@H](CCCNC(=N)N)C(=O)NCC(=O)N[C@@H](CC(=O)O)C(=O)NCC(=O)N[C@@H](CCC(=O)O)C(=O)N[C@@H](CCC(=O)O)C(=O)N[C@H]1Cc2ccc(cc2)OCCSC[C@@H](C(=O)N[C@H](C(=O)N[C@@H](CC(=O)O)C(=O)O)C(C)C)NC(=O)CNC(=O)[C@H](CC(=O)O)NC1=O)[C@@H](C)O` [FLAG-HL2-2m1.2] (H-MDYKDDDDKGSGSTRGDGEEYDGCVD-OH; linker 21-24 via CH2CH2; N-terminus assumed), binding in assay [1] was characterised by a dissociation constant (Kd) of 850 ± 20 nM.

Turning to `CSCC[C@@H]1NC(=O)[C@H](CCC(=O)O)NC(=O)[C@H](CCC(=O)O)NC(=O)[C@@H](NC(=O)[C@H](CC(=O)O)NC(=O)[C@H](CC(=O)O)NC(=O)[C@H](CC(C)C)NC(=O)[C@@H](NC(=O)[C@H](CO)NC(=O)CNC(=O)[C@H](CO)NC(=O)CNC(=O)[C@H](CCCCN)NC(=O)[C@H](CC(=O)O)NC(=O)[C@H](CC(=O)O)NC(=O)[C@H](CC(=O)O)NC(=O)[C@H](CC(=O)O)NC(=O)[C@H](CCCCN)NC(=O)[C@H](Cc2ccc(O)cc2)NC(=O)[C@H](CC(=O)O)NC(=O)[C@@H](N)CCSC)[C@@H](C)O)Cc2ccc(cc2)OCCSC[C@@H](C(=O)N[C@@H](CO)C(=O)N[C@@H](CC(=O)O)C(=O)O)NC(=O)CNC(=O)[C@H](CC(=O)O)NC1=O` [FLAG-HL2-m1] (H-MDYKDDDDKGSGSTLDDYEEMDGCSD-OH; linker 18-24 via CH2CH2; N-terminus assumed), in assay [2] (ratio of KD values), the “increase in Shh binding affinity compared to FLAG-HL2-m1” value is given as 11 fold.

On to `CC1=C2C[C@H]3[C@@H](CC=C4C[C@@H](O)CC[C@@]43C)[C@@H]2CC[C@]12O[C@@H]1C[C@H](C)CN[C@H]1[C@H]2C` [cyclopamine], for which the “inhibition of Shh-induced luminescence” value in assay [3] (concentration of 10 μM) was “full inhibition”.

In assay [2], `CSCC[C@@H]1NC(=O)[C@H](C)NC(=O)[C@H](CCC(=O)O)NC(=O)[C@@H](NC(=O)[C@H](Cc2c[nH]c3ccccc23)NC(=O)[C@H](CO)NC(=O)[C@H](CC(C)C)NC(=O)[C@@H](NC(=O)[C@H](CO)NC(=O)CNC(=O)[C@H](CO)NC(=O)CNC(=O)[C@H](CCCCN)NC(=O)[C@H](CC(=O)O)NC(=O)[C@H](CC(=O)O)NC(=O)[C@H](CC(=O)O)NC(=O)[C@H](CC(=O)O)NC(=O)[C@H](CCCCN)NC(=O)[C@H](Cc2ccc(O)cc2)NC(=O)[C@H](CC(=O)O)NC(=O)[C@@H](N)CCSC)[C@@H](C)O)Cc2ccc(cc2)OCCSC[C@@H](C(=O)N[C@H](C(=O)N[C@@H](CC(=O)O)C(=O)O)[C@@H](C)O)NC(=O)[C@H](CCSC)NC(=O)[C@H](CC(=O)O)NC1=O` [FLAG-HL2-m5] (H-MDYKDDDDKGSGSTLSWYEAMDMCTD-OH; linker 18-24 via CH2CH2) registered a dissociation constant (Kd) of 170 nM. Also, the “higher binding affinity for Shh compared to the linear L2-derived peptide (FLAG-HL2-pep)” value in assay [2] (ratio of KD values) is listed as ~120 fold.

As for `c1ccc2c(Oc3nc(Nc4ccc(N5CCOCC5)cc4)c4ncn(C5CCCCC5)c4n3)cccc2c1` [purmorphamine], the “effect of Smo agonist on pathway signaling in HL-m5-treated cells” value in assay [3] (5 μM purmorphamine added to 10 μM HL2-m5) is “restored activation of the signaling pathway”.

`CSCC[C@H](N)C(=O)N[C@@H](CC(=O)O)C(=O)N[C@@H](Cc1ccc(O)cc1)C(=O)N[C@@H](CCCCN)C(=O)N[C@@H](CC(=O)O)C(=O)N[C@@H](CC(=O)O)C(=O)N[C@@H](CC(=O)O)C(=O)N[C@@H](CC(=O)O)C(=O)N[C@@H](CCCCN)C(=O)NCC(=O)N[C@@H](CO)C(=O)NCC(=O)N[C@@H](CO)C(=O)N[C@H](C(=O)N[C@H](C(=O)N[C@@H](CO)C(=O)N[C@@H](CC(=O)O)C(=O)NCC(=O)N[C@@H](CCC(=O)O)C(=O)N[C@@H](CCC(=O)O)C(=O)N[C@H]1Cc2ccc(cc2)OCCSC[C@@H](C(=O)N[C@@H](CC(C)C)C(=O)N[C@@H](CC(=O)O)C(=O)O)NC(=O)CNC(=O)[C@H](CC(=O)O)NC1=O)C(C)C)[C@@H](C)O` [FLAG-HL2-2m1.1] (H-MDYKDDDDKGSGSTVSDGEEYDGCLD-OH; linker 21-24 via CH2CH2; N-terminus assumed): in assay [1], the affinity, expressed as Kd, was 560 ± 5 nM.

Consider “HL2-pep: linear peptide derived from the HHIP L2 loop (TLDDMEEMDGLSD)”, for which, in assay [3] (concentrations up to 30 μM, Shh-N-stimulated cells), the “inhibitory activity on Hedgehog pathway signaling (in words)” value is listed as “no inhibitory activity; also recorded: unable to suppress signaling”. The “Hedgehog analog selectivity profile” value in assay [4] is listed as “Dhh>Shh≈Ihh”.
